# In patent US10118935B2, “Melampomagnolide B dimers” (priority 2014, dated 2018):
# Where two headings read alike, the source gives them in different places.
# Columns and labels:
# UO-31 = test: NCI 60 cell line five dose, Renal Cancer
# HOP-92 = test: NCI 60 cell line five dose, Non-Small Cell Lung Cancer
# MDA-MB-435 = test: NCI 60 cell line five dose, Melanoma
# MALME-3M = test: NCI 60 cell line five dose, Melanoma; details: MALME-3M
# SK-MEL-28 = test: NCI 60 cell line five dose, Melanoma; details: SK-MEL-28
# MOLT-4 = test: NCI 60 cell line five dose, Leukemia
# HCT-15 = test: NCI 60 cell line five dose, Colon Cancer
# HL-60(TB) = details: for CC50: read-out: LC50
# CAKI-1 = test: NCI 60 cell line five dose, Renal Cancer
# SNB-75 = test: NCI 60 cell line five dose, CNS Cancer
# ACHN = test: NCI 60 cell line five dose, Renal Cancer
# NCI-H522 = test: NCI 60 cell line five dose, Non-Small Cell Lung Cancer
# NCI-H460 = test: as above
# T-47D = test: NCI 60 cell line five dose, Breast Cancer
# COLO 205 = test: NCI 60 cell line five dose, Colon Cancer
# SK-OV-3 = test: NCI 60 cell line five dose, Ovarian Cancer
# MCF7 = test: NCI 60 cell line five dose, Breast Cancer
# NCI-H322M = test: NCI 60 cell line five dose, Non-Small Cell Lung Cancer
# U251 = test: NCI 60 cell line five dose, CNS Cancer
# TK-10 = test: NCI 60 cell line five dose, Renal Cancer
# OVCAR-3 = test: NCI 60 cell line five dose, Ovarian Cancer
# [1] = system: panel of 60 human cancer cell lines; test: Five-dose growth inhibition, panel; assay type: cell-based
# UACC-257 = test: NCI 60 cell line five dose, Melanoma
smiles,measurement,setting,value
"C=C1C(=O)O[C@H]2[C@H]1CC/C(COC(=O)NCCCCCNC(=O)OC/C1=C/CC[C@@]3(C)O[C@H]3[C@H]3OC(=O)C(=C)[C@@H]3CC1)=C\CC[C@@]1(C)O[C@@H]21 [JVM 2-76, bis(((1aR,7aS,10aS,10bS,E)-1a-Methyl-8-methylene-9-oxo-1a,2,3,6,7,7a,8,9,10a,10b-decahydrooxireno[2′,3′:9,10]cyclodeca[1,2-b]furan-5-yl)methyl)pentane-1,5-diyldicarbamate]",GI50,UO-31,8.9 µM
same,TGI,UO-31,22.5 µM
same,CC50,UO-31; read-out: LC50,52.3 µM
same,GI50,HOP-92,1.3 µM
same,TGI,HOP-92,3.35 µM
same,CC50,HOP-92; read-out: LC50,8.61 µM
same,GI50,MDA-MB-435,1.51 µM
same,TGI,MDA-MB-435,3.32 µM
same,CC50,MDA-MB-435; read-out: LC50,7.3 µM
same,GI50,MALME-3M,2.06 µM
same,TGI,MALME-3M,5.24 µM
same,CC50,MALME-3M; read-out: LC50,27.3 µM
same,GI50,SK-MEL-28,1.58 µM
same,TGI,SK-MEL-28,4.13 µM
same,CC50,SK-MEL-28; read-out: LC50,12.6 µM
same,GI50,MOLT-4,1.48 µM
same,TGI,MOLT-4,9.29 µM
same,CC50,MOLT-4; read-out: LC50,> 100 µM
same,GI50,HCT-15,6.18 µM
same,TGI,HCT-15,20.7 µM
same,CC50,HCT-15; read-out: LC50,49.8 µM
same,GI50,HL-60(TB),0.31 µM
same,TGI,HL-60(TB),1.71 µM
same,CC50,HL-60(TB),> 100 µM
same,GI50,CAKI-1,16.1 µM
same,TGI,CAKI-1,33.1 µM
same,CC50,CAKI-1; read-out: LC50,68.1 µM
same,GI50,SNB-75,2.2 µM
same,TGI,SNB-75,11.4 µM
same,CC50,SNB-75; read-out: LC50,33.8 µM
same,GI50,ACHN,3.05 µM
same,TGI,ACHN,9.84 µM
same,CC50,ACHN; read-out: LC50,35.4 µM
same,GI50,NCI-H522,0.22 µM
same,TGI,NCI-H522,0.44 µM
same,CC50,NCI-H522; read-out: LC50,0.88 µM
same,GI50,NCI-H460,4.34 µM
same,TGI,NCI-H460,16.2 µM
same,CC50,NCI-H460; read-out: LC50,50.7 µM
same,GI50,T-47D,1.6 µM
same,TGI,T-47D,5.73 µM
same,CC50,T-47D; read-out: LC50,> 100 µM
same,GI50,COLO 205,0.52 µM
same,TGI,COLO 205,2.33 µM
same,CC50,COLO 205; read-out: LC50,7.97 µM
same,GI50,SK-OV-3,5.99 µM
same,TGI,SK-OV-3,19.7 µM
same,CC50,SK-OV-3; read-out: LC50,49.9 µM
same,GI50,SNB-19; SNB-19,3.97 µM
same,TGI,SNB-19; SNB-19,19.0 µM
same,CC50,"SNB-19; read-out: LC50, SNB-19",92.5 µM
same,GI50,MCF7,0.39 µM
same,TGI,MCF7,1.93 µM
same,CC50,MCF7; read-out: LC50,6.2 µM
same,GI50,NCI-H322M,16.4 µM
same,TGI,NCI-H322M,41.6 µM
same,GI50,U251,3.51 µM
same,TGI,U251,13.7 µM
same,CC50,U251; read-out: LC50,51.5 µM
same,GI50,TK-10,1.82 µM
same,TGI,TK-10,4.40 µM
same,CC50,TK-10; read-out: LC50,11.8 µM
same,GI50,OVCAR-3,0.76 µM
same,TGI,OVCAR-3,2.13 µM
same,CC50,OVCAR-3; read-out: LC50,5.07 µM
same,growth inhibition (GI50),"[1]; CCRF-CEM, HL-60 (TB), K-562, RPMI-8226, SR, NCI-H522, COLO 205, HCT-116, HT29, SW-620, LOX IMVI, OVCAR-3, RXF 393, MCF7",nano-molar range
same,GI50 values,[1]; remaining human cancer cell lines,low micromolar range
same,GI50,UACC-257,2.07 µM
same,TGI,UACC-257,7.46 µM
same,CC50,UACC-257; read-out: LC50,42.4 µM
"C=C1C(=O)O[C@H]2[C@H]1CC/C(COC(=O)CCC(=O)NCCCCCCCCNC(=O)CCC(=O)OC/C1=C/CC[C@@]3(C)O[C@H]3[C@H]3OC(=O)C(=C)[C@@H]3CC1)=C\CC[C@@]1(C)O[C@@H]21 [JVM 2-87, bis(((1aR,7aS,10aS,10bS,E)-1a-Methyl-8-methylene-9-oxo-1a,2,3,6,7,7a,8,9,10a,1b-decahydrooxireno[2′,3′:9,10]cyclodeca[1,2-b]furan-5-yl)methyl)4,4′-(octane-1,8-diylbis(azanediyl))bis(4-oxobutanoate)]",GI50,UO-31,10.9 µM
same,TGI,UO-31,24.2 µM
same,GI50,HOP-92,1.58 µM
same,TGI,HOP-92,3.27 µM
same,GI50,MDA-MB-435,1.8 µM
same,TGI,MDA-MB-435,3.69 µM
same,GI50,MALME-3M,2.04 µM
same,TGI,MALME-3M,4.04 µM
same,GI50,SK-MEL-28,1.65 µM
same,TGI,SK-MEL-28,3.23 µM
same,GI50,MOLT-4,2.11 µM
same,TGI,MOLT-4,6.41 µM
same,GI50,HCT-15,3.6 µM
same,TGI,HCT-15,15.6 µM
same,GI50,HL-60(TB),0.63 µM
same,TGI,HL-60(TB),3.12 µM
same,CC50,HL-60(TB),> 100 µM
same,GI50,CAKI-1,12.7 µM
same,TGI,CAKI-1,32.0 µM
same,GI50,SNB-75,2.02 µM
same,TGI,SNB-75,7.25 µM
same,GI50,ACHN,3.13 µM
same,TGI,ACHN,10.9 µM
same,GI50,NCI-H522,0.48 µM
same,TGI,NCI-H522,1.80 µM
same,GI50,NCI-H460,5 µM
same,TGI,NCI-H460,19.9 µM
same,GI50,T-47D,1.51 µM
same,TGI,T-47D,3.86 µM
same,GI50,COLO 205,1.35 µM
same,TGI,COLO 205,3.14 µM
same,GI50,SK-OV-3,6.45 µM
same,TGI,SK-OV-3,19.7 µM
same,CC50,SNB-19,> 100 µM
same,GI50,SNB-19; SNB-19,4.15 µM
same,TGI,SNB-19; SNB-19,19.9 µM
same,GI50,MCF7,0.77 µM
same,TGI,MCF7,2.47 µM
same,GI50,NCI-H322M,16.3 µM
same,TGI,NCI-H322M,31.4 µM
same,GI50,U251,3.03 µM
same,TGI,U251,10.6 µM
same,GI50,TK-10,20.8 µM
same,TGI,TK-10,3.94 µM
same,GI50,OVCAR-3,1.5 µM
same,TGI,OVCAR-3,2.82 µM
same,growth inhibition (GI50),"[1]; CCRF-CEM, HL-60 (TB), K-562, SR",nanomolar range
same,growth inhibition (GI50),"[1]; NCI-H522, RXF 393, MCF7",nanomolar range
same,growth inhibition (GI50),[1]; other human tumor cell lines in the panel,low micromolar range
same,GI50,UACC-257,1.76 µM
same,TGI,UACC-257,4.48 µM
"C=C1C(=O)O[C@H]2[C@H]1CC/C(COC(=O)CCC(=O)NCCCCCCCCCNC(=O)CCC(=O)OC/C1=C/CC[C@@]3(C)O[C@H]3[C@H]3OC(=O)C(=C)[C@@H]3CC1)=C\CC[C@@]1(C)O[C@@H]21 [JVM 2-92, bis(((1aR,7aS,10aS,10bS,E)-1a-Methyl-8-methylene-9-oxo-1a,2,3,6,7,7a,8,9,10a,10b-decahydrooxireno[2′,3′:9,10]cyclodeca[1,2-b]furan-5-yl)methyl)4,4′-(nonane-1,9-diylbis(azanediyl))bis (4-oxobutanoate)]",GI50,UO-31,3.9 µM
same,TGI,UO-31,16.1 µM
same,GI50,HOP-92,1.4 µM
same,TGI,HOP-92,3.05 µM
same,GI50,MDA-MB-435,1.63 µM
same,TGI,MDA-MB-435,3.44 µM
same,GI50,MALME-3M,1.94 µM
same,TGI,MALME-3M,4.17 µM
same,GI50,SK-MEL-28,1.47 µM
same,TGI,SK-MEL-28,3.03 µM
same,GI50,MOLT-4,0.64 µM
same,TGI,MOLT-4,4.20 µM
same,GI50,HCT-15,2.63 µM
same,TGI,HCT-15,11.9 µM
same,GI50,HL-60(TB),0.44 µM
same,TGI,HL-60(TB),2.13 µM
same,CC50,HL-60(TB),> 100 µM
same,GI50,CAKI-1,10.5 µM
same,TGI,CAKI-1,22.8 µM
same,GI50,SNB-75,1.47 µM
same,TGI,SNB-75,4.35 µM
same,GI50,ACHN,2.1 µM
same,TGI,ACHN,5.16 µM
same,GI50,NCI-H522,0.42 µM
same,TGI,NCI-H522,1.64 µM
same,GI50,NCI-H460,2.18 µM
same,TGI,NCI-H460,5.17 µM
same,GI50,T-47D,1.49 µM
same,TGI,T-47D,4.48 µM
same,GI50,COLO 205,1.22 µM
same,TGI,COLO 205,3.16 µM
same,GI50,SK-OV-3,5.8 µM
same,TGI,SK-OV-3,19.2 µM
same,CC50,SNB-19,> 100 µM
same,GI50,SNB-19; SNB-19,3.38 µM
same,TGI,SNB-19; SNB-19,16.3 µM
same,GI50,MCF7,0.42 µM
same,TGI,MCF7,1.85 µM
same,GI50,NCI-H322M,16.3 µM
same,TGI,NCI-H322M,31.6 µM
same,GI50,U251,3.01 µM
same,TGI,U251,9.25 µM
same,GI50,TK-10,1.78 µM
same,TGI,TK-10,3.28 µM
same,GI50,OVCAR-3,1.29 µM
same,TGI,OVCAR-3,2.61 µM
same,growth inhibition,"[1]; NCI-H522, SW-620, LOX IMVI, MCF7, BT-549, MDA-MB-468",nano-molar range
same,growth inhibition,[1]; all hematological leukemia cell lines,nanomolar range
same,GI50,UACC-257,2.06 µM
same,TGI,UACC-257,5.59 µM
